Data from ChEMBL document CHEMBL4373694 (J Med Chem, 2019).
Activity calls are given as the source filed them. The calls are words filed in the database; no cut-off is given here.

Tests used:
Homo sapiens [1] = organism: Homo sapiens; test: Selectivity ratio, ratio of IC50 for 20S proteasome beta 5c (unknown origin) to IC50 for human 20S proteasome beta 1i
[2] = Inhibition of human 20S proteasome beta 5i preincubated for 1 hr followed by fluorescence based assay
Homo sapiens [3] = organism: Homo sapiens; test: Inhibition of 20S proteasome beta 5i in human PBMC cells assessed as induction of PSMB6 expression at 100 nM after 3 to 72 hrs by RT-PCR analysis; format: cell-based
Homo sapiens [4] = organism: Homo sapiens; test: Selectivity ratio, ratio of IC50 for 20S proteasome beta 5c (unknown origin) to IC50 for human 20S proteasome beta 5i
[5] = Inhibition of 20S proteasome beta 5c (unknown origin) preincubated for 1 hr followed by fluorescence based assay; design: species or system Homo sapiens
Homo sapiens [6] = organism: Homo sapiens; test: Inhibition of 20S proteasome beta 5i in human PBMC cells assessed as induction of PSMB7 expression at 100 nM after 3 to 72 hrs by RT-PCR method; format: cell-based
Homo sapiens [7] = organism: Homo sapiens; test: Inhibition of 20S proteasome beta 5i in human PBMC cells assessed as induction of PSMB5 expression at 100 nM after 3 to 72 hrs by RT-PCR analysis; format: cell-based
[8] = Inhibition of human 20S proteasome beta 1i
[9] = Inhibition of 20S proteasome beta 1c derived from human erythrocytes preincubated for 1 hr using Z-nLPnLD-Glo peptide as substrate by proteasome-glo caspase-like assay
[10] = Inhibition of 20S proteasome beta 5i/20S proteasome beta 1i in human PBMC cell lysate assessed as reduction in chymotrypsin-like activity pre-incubated for 30 mins followed by Meo-Suc-GLF-AM substrate addition and measured after 30 mins by fluorescence assay; format: subcellular
Homo sapiens [11] = organism: Homo sapiens; test: Selectivity ratio, ratio of IC50 for human 20S proteasome beta 1i to IC50 for 20S proteasome beta 5i (unknown origin)
Homo sapiens [12] = organism: Homo sapiens; test: Selectivity ratio, ratio of IC50 for 20S proteasome beta 1c (unknown origin) to IC50 for human 20S proteasome beta 5i
[13] = Cytotoxicity against human pDC assessed as reduction in cell viability by CellTiter Glo assay; format: functional
PBMC [14] = test: Cytotoxicity against human PBMC cells assessed as reduction in cell viability by CellTiter Glo assay; format: functional, cell-based
[15] = Cytotoxicity against human plasmablasts assessed as reduction in cell viability by CellTiter Glo assay; format: functional
Homo sapiens [16] = organism: Homo sapiens; test: (§1) Cytotoxicity against anti-CD3/CD28-stimulated human CD4-positive T cells with CRISP/CAS9 20S proteasome beta 5c knockout assessed as reduction in cell viability measured on day 8 by CellTiter Glo assay relative to control; format: functional
PBMC [17] = test: Induction of ubiquitin accumulation in human PBMC cells at 100 nM after 6 hrs by Western blot analysis; format: functional, cell-based
Homo sapiens [18] = organism: Homo sapiens; test: Inhibition of 20S proteasome beta 5i in human PBMC cells assessed as upregulation of 20S proteasome beta 5c level at 100 nM after 24 to 72 hrs by Western blot analysis; format: cell-based
PBMC [19] = test: Induction of apoptosis in human PBMC cells at 10 uM after 12 hrs by caspase 3,7-glo assay; format: functional, cell-based
[20] = as §1; format: functional
[21] = Cytotoxicity against anti-CD3/CD28-stimulated human CD4-positive T cells with CRISP/CAS9 20S proteasome beta 5i knockout assessed as reduction in cell viability measured on day 8 by CellTiter Glo assay relative to control; format: functional

| Compound | Ratio IC50 (Homo sapiens [1]) | IC50 [2] [nM] | Ratio IC50 (Homo sapiens [4]) | IC50 [5] [nM] | IC50 [8] [nM] | IC50 [9] [nM] | IC50 [10] [nM] | other results |
| --- | --- | --- | --- | --- | --- | --- | --- | --- |
| COC[C@H](NC(=O)c1cc(C)on1)C(=O)N[C@H](C(=O)N[C@@H](CC(C)C)C(=O)[C@@]1(C)CO1)C1CC1 | 0.11 | 2100 | 0.04 | 78 | 690 | 11000 | – | inhibition (Homo sapiens [3]): Active; inhibition (Homo sapiens [6]): Active; inhibition (Homo sapiens [7]): Active |
| CC(C)C[C@H](NC(=O)c1cn(Cc2ccccc2)nn1)B(O)O | 1300 to 3400 | 4 | 220 to 710 | 890 | 0.55 | 71 | 45 | Ratio IC50 (Homo sapiens [11]): 0.14 |
| Cc1ccc(C[C@H](NC(=O)c2nnn(Cc3ccccc3)c2C)B2O[C@@H]3C[C@@H]4C[C@@H](C4(C)C)[C@]3(C)O2)c(C)c1 | – | 4.1 | 2200 | 9100 | 8500 | > 20000 | 79 | Ratio IC50 (Homo sapiens [12]): > 4800; IC50 [13]: > 10000 nM; Ratio IC50 (Homo sapiens [11]): 2100; IC50 (PBMC [14]): > 10000 nM; IC50 [15]: 9300 nM |
| Cc1c(C(=O)N[C@@H](CC(C)C)B(O)O)nnn1-c1ccccc1 | – | 130 | – | > 10000 | 41 | 18000 | 310 | – |
| CC(C)C[C@H](NC(=O)c1cn(C2CCCCC2)nn1)B(O)O | 1300 to 3400 | 4.1 | 710 | 2900 | 0.85 | 480 | 60 | Ratio IC50 (Homo sapiens [12]): 120; IC50 [13]: 3700 nM; Ratio IC50 (Homo sapiens [11]): 0.2; IC50 (PBMC [14]): 7300 nM; IC50 [15]: 2900 nM |
| Cc1ccc(C[C@H](NC(=O)c2cn(Cc3ccccc3)nn2)B2O[C@@H]3C[C@@H]4C[C@@H](C4(C)C)[C@]3(C)O2)c(C)c1 | – | 1.2 | – | 420 | 17 | > 20000 | 11 | – |
| CC(C)C[C@H](NC(=O)c1cc(Cc2ccccc2)on1)B(O)O | – | 23 | – | 3000 | 9.4 | 1400 | 85 | – |
| Cc1ccc(C[C@H](NC(=O)c2cn(-c3ccccc3)nn2)B2O[C@@H]3C[C@@H]4C[C@@H](C4(C)C)[C@]3(C)O2)c(C)c1 | – | 0.68 | – | 270 | 50 | > 20000 | 6.9 | – |
| O=C(N[C@@H](Cc1ccc(Cl)cc1)B(O)O)c1cnn(-c2ccccc2)c1 | – | 6.8 | – | 3200 | 12 | > 20000 | 130 | – |
| CC(C)C[C@H](NC(=O)c1cn(C)nn1)B1O[C@@H]2C[C@@H]3C[C@@H](C3(C)C)[C@]2(C)O1 | – | 55 | 174 | 9600 | 9 | > 20000 | 250 | – |
| O=C(N[C@@H](Cc1ccc(Cl)cc1)B(O)O)c1cn(Cc2ccccc2)nn1 | – | 0.54 | – | 46 | 3.9 | 530 | 2.3 | – |
| COc1ccc(C(=O)NCCn2cc(C(=O)N[C@@H](CC(C)C)B(O)O)nn2)c(OC)c1OC | 5.2 | 2.2 | 17 | 37 | 8.1 | 1400 | 34 | Ratio IC50 (Homo sapiens [12]): 640; inhibition (Homo sapiens [3]): Active; IC50 [13]: 22 nM; Ratio IC50 (Homo sapiens [11]): 5.2; inhibition (Homo sapiens [6]): Active; IC50 (PBMC [14]): 100 nM; inhibition (Homo sapiens [7]): Active; IC50 [15]: 54 nM |
| C=CC(=O)N(CC(=O)N[C@@H](Cc1ccc(C)cc1C)B(O)O)c1ccccc1F | 1.1 | 8.1 | 283 to 296 | 2400 | 2200 | > 20000 | – | Activity (Homo sapiens [16]): Active; Activity (PBMC [17]): inactive; Ratio IC50 (Homo sapiens [12]): > 2400; inhibition (Homo sapiens [3]): Active; IC50 [13]: 6000 nM; Ratio IC50 (Homo sapiens [11]): 247; inhibition (Homo sapiens [6]): Active; IC50 (PBMC [14]): 5700 nM; inhibition (Homo sapiens [7]): Active; IC50 [15]: 670 nM; inhibition (Homo sapiens [18]): Active; Activity (PBMC [19]): inactive |
| O=C(N[C@@H](Cc1ccc(Cl)cc1)B(O)O)c1cn(-c2ccccc2)nn1 | – | 0.91 | – | 64 | 15 | 5500 | 3.2 | – |
| CC(C)C[C@H](NC(=O)c1ncn(Cc2ccccc2)n1)B(O)O | – | 360 | – | > 10000 | 19 | > 20000 | 8900 | – |
| Cc1ccc(C[C@H](NC(=O)c2cc(Cc3ccccc3)on2)B2O[C@@H]3C[C@@H]4C[C@@H](C4(C)C)[C@]3(C)O2)c(C)c1 | – | 4.1 | – | 1300 | 92 | > 20000 | 80 | – |
| CC(C)C[C@H](NC(=O)[C@H](Cc1ccccc1)NC(=O)c1cnccn1)B(O)O [BORTEZOMIB] | – | – | – | – | 7.9 | 32 | – | fold change (FC) [20]: 3; inhibition (Homo sapiens [3]): Active; IC50 [13]: 5.2 nM; inhibition (Homo sapiens [6]): Active; IC50 (PBMC [14]): 2.7 nM; inhibition (Homo sapiens [7]): Active; fold change (FC) [21]: 3; IC50 [15]: 3.9 nM |
| Cc1c(C(=O)N[C@@H](CC(C)C)B(O)O)nnn1Cc1ccccc1 | – | 40 | – | 7300 | 15 | > 20000 | 290 | Ratio IC50 (Homo sapiens [11]): 0.4 |
| CC(C)C[C@H](NC(=O)c1nnc(Cc2ccccc2)[nH]1)B(O)O | – | 19 | – | 350 | 6.3 | 61 | 200 | – |
| COc1ccc(C[C@H](NC(=O)[C@H](C)NC(=O)CN2CCOCC2)C(=O)N[C@@H](Cc2ccccc2)C(=O)[C@@]2(C)CO2)cc1 | 1.6 | 145 | 9 to 20 | 1300 | 790 | 13000 | – | inhibition (Homo sapiens [3]): Active; inhibition (Homo sapiens [6]): Active; inhibition (Homo sapiens [7]): Active |
| O=C(N[C@@H](Cc1ccc(Cl)cc1)B(O)O)c1cnn(Cc2ccccc2)c1 | – | 87 | – | 7700 | 110 | > 20000 | 470 | – |
| CC(C)C[C@H](NC(=O)c1cn(-c2ccccc2)nn1)B(O)O | 1300 to 3400 | 1.4 | – | 760 | 0.58 | 4200 | 25 | – |
